Data taken from patent publication US20130273176A1, “METHODS AND COMPOSITIONS USEFUL FOR PROMOTING SLEEP IN ANIMALS” (Nestec SA, priority 2010, published 2013).

Experiments:
senior dogs [1] = test: Actiware sleep analysis, Example 2 (melatonin only, cross-over, AM or PM); format: in vivo, dog; conditions: for Nap Duration / Total Daytime Naps / Total Daytime Sleep Minutes / Total Night-Time Awakenings / Total Night-Time Wake Minutes: melatonin only, mean +/- std error
Procedure: Using a cross-over design, all animals were administered a control placebo and a treatment supplement containing melatonin. The animals were senior animals, dogs greater than 10 years of age. There were 4 males and 4 females in each group. For the intervention phases (phases 2 and 4), all animals were administered melatonin in the AM or PM. During the control and cross-over phases (phase 1 and 3, respectively) the animals were administered a placebo comprising methylcellulose contained in a gel capsule in the AM or PM, as appropriate.
Each phase lasted 35 days. Starting on day 29 of each phase, the animals locomotor behavioral activity was monitored for 4 consecutive days.
The placebo consisted of the carrier (methylcellulose) contained in a gel capsule and was provided during the control phases (Phases 1 and 3) either with the AM or PM feeding, as appropriate to complement the supplement time (luring the following intervention phase. For example, placebo in AM during phase 1, then supplement in AM during phase 2.
For phase 2, the first supplement treatment phase, the animals were given supplements of melatonin. Further, for half of the animals, the supplements were in the morning with the AM feeding and half were given in the evening with the PM feeding. Thus, of the 4 males, 2 were administered the melatonin in the morning and two in the evening.
During phase 3, the second control phase, delivery of the methylcellulose in a gel capsule was provided either with the AM or PM feeding, as appropriate to cross-over the treatment from phase 1-2.
For phase 4, the second supplement treatment phase, the procedure was exactly the same as phase 2, except that for a given animal the supplementation time was switched from phase 2. Thus, if male was administered melatonin in the morning with the AM feeding in phase 2, the male was administered melatonin in the evening with the PM feeding in phase 4.
Data analysis of periods indicated no period effect. Therefore, all control data were compiled into a single dataset, as well as all treatment data for each supplement time (AM or PM). Statistical analysis was based on AM control vs. AM treatment, and PM control vs. PM Treatment.
Twenty-four hour activity rhythms were assessed for 5 consecutive days and 5 nights for Example 1 or 3 consecutive days and 4 nights for Example 2 using the Actiwatch method (Mini-Mitter® Actiwatch-16® activity monitoring system, Respironics Co. Inc., Bend, Oreg.). The Actiwatch® was placed inside a specially designed animal case and attached to a collar around the dog's neck. The dogs were allowed to follow their usual patterns of activity, test, exercise, and feeding.
The Actiware® software was used to generate total daily, light phase (12-h daytime: 7 am-7 pm), and dark phase (12-h night-time: 7 PM-7 AM) total sleep or wake minutes. Light phase naps represent sleep bouts occurring during the 12-h light phase interval. Dark phase wake bouts relied awake activity during the night-time sleep interval and not the 12-h dark phase interval. Total number of bouts and bout duration were determined for both light phase naps and dark phase awakenings.
The total number of sleep minutes recorded during the daytime phase of Example 2 was used to calculate the number of nap bouts and average nap duration during this same period.

senior dogs [2] = test: Actiwatch activity recording, Example 2 (melatonin only, cross-over, AM or PM); format: in vivo, dog; conditions: for Total Daytime Activity Counts: melatonin only, mean +/- std error
Procedure: Using a cross-over design, all animals were administered a control placebo and a treatment supplement containing melatonin. The animals were senior animals, dogs greater than 10 years of age. There were 4 males and 4 females in each group. For the intervention phases (phases 2 and 4), all animals were administered melatonin in the AM or PM. During the control and cross-over phases (phase 1 and 3, respectively) the animals were administered a placebo comprising methylcellulose contained in a gel capsule in the AM or PM, as appropriate. Each phase lasted 35 days. Starting on day 29 of each phase, the animals locomotor behavioral activity was monitored for 4 consecutive days. The placebo consisted of the carrier (methylcellulose) contained in a gel capsule and was provided during the control phases (Phases 1 and 3) either with the AM or PM feeding, as appropriate to complement the supplement time (luring the following intervention phase. For example, placebo in AM during phase 1, then supplement in AM during phase 2. For phase 2, the first supplement treatment phase, the animals were given supplements of melatonin. Further, for half of the animals, the supplements were in the morning with the AM feeding and half were given in the evening with the PM feeding. Thus, of the 4 males, 2 were administered the melatonin in the morning and two in the evening. During phase 3, the second control phase, delivery of the methylcellulose in a gel capsule was provided either with the AM or PM feeding, as appropriate to cross-over the treatment from phase 1-2. For phase 4, the second supplement treatment phase, the procedure was exactly the same as phase 2, except that for a given animal the supplementation time was switched from phase 2. Thus, if male was administered melatonin in the morning with the AM feeding in phase 2, the male was administered melatonin in the evening with the PM feeding in phase 4. Data analysis of periods indicated no period effect. Therefore, all control data were compiled into a single dataset, as well as all treatment data for each supplement time (AM or PM). Statistical analysis was based on AM control vs. AM treatment, and PM control vs. PM Treatment. Twenty-four hour activity rhythms were assessed for 5 consecutive days and 5 nights for Example 1 or 3 consecutive days and 4 nights for Example 2 using the Actiwatch method (Mini-Mitter® Actiwatch-16® activity monitoring system, Respironics Co. Inc., Bend, Oreg.). The Actiwatch® was placed inside a specially designed animal case and attached to a collar around the dog's neck. The dogs were allowed to follow their usual patterns of activity, test, exercise, and feeding. Daytime activity was recorded to represent the 12 hour light phase from 7 am to 7 pm. […]

COc1ccc2[nH]cc(CCNC(C)=O)c2c1 [Melatonin Only, melatonin]
Nap Duration (senior dogs [1]; AM Supplement): 4.2 +/− 0.7 | Total Daytime Naps (senior dogs [1]; AM Supplement): 58.3 +/− 3.5 | Total Daytime Sleep Minutes (senior dogs [1]; AM Supplement): 240 ± 32 min | Total Night-Time Awakenings (senior dogs [1]; AM Supplement): 69.5 +/− 6.9 | Total Night-Time Wake Minutes (senior dogs [1]; AM Supplement): 198 ± 35 min | Nap Duration (senior dogs [1]; PM Supplement): 6.4 +/− 1.2 | Total Daytime Naps (senior dogs [1]; PM Supplement): 45.5 +/− 4.7 | Total Daytime Sleep Minutes (senior dogs [1]; PM Supplement): 264 ± 28 min | Total Night-Time Awakenings (senior dogs [1]; PM Supplement): 52.6 +/− 5.7 | Total Night-Time Wake Minutes (senior dogs [1]; PM Supplement): 209 ± 37 min | increase in total daytime sleep minutes compared to dogs on the control food (senior dogs [1]; PM, melatonin 1 mg/kg BW, 35 days, not statistically significant (p=0.25)): 21% | decrease in total number of awakenings during the sleep phase compared to the control group (senior dogs [1]; melatonin alone with the PM meal): 22% | decrease in average nap length compared to control group (senior dogs [1]; melatonin with the AM meal): 31% | increase in the number of awakenings compared to control group (senior dogs [1]; melatonin with the AM meal): 16.6% | increase in the number of naps compared to control group (senior dogs [1]; melatonin with the AM meal): 10% | increase in night-time wake minutes compared to control group (senior dogs [1]; melatonin with the AM meal, not different from control data): 41% | total number of naps during the 12 hour daytime phase compared to the control group (senior dogs [1]; melatonin with the PM meal): did not change at all | increase in average nap duration compared to the control group (senior dogs [1]; melatonin with the PM meal, 12 hour daytime phase): 18.5% | decrease in total night-time wake minutes compared to the control group (senior dogs [1]; melatonin with the PM meal, not statistically significant): 18.6% | Total Daytime Activity Counts (senior dogs [2]; AM Supplement): 115,705 +/− 23,249 | Total Daytime Activity Counts (senior dogs [2]; PM Supplement, 1 mg/kg BW, 35 days): 114,816 +/− 34,282 | reduction in total daytime activity counts compared to dogs on the control food (senior dogs [2]; PM, melatonin 1 mg/kg BW, 35 days, not statistically significant): 16% | daytime activity effect versus placebo group (senior dogs [2]; melatonin supplemented in the AM): not significantly different from the placebo group
